PMC10605077, “In Vitro and In Silico Antiviral Activity of Di-Halogenated Compounds Derived from L-Tyrosine against Human Immunodeficiency Virus 1 (HIV-1)” (Current Issues in Molecular Biology, 2023)
“Also recorded” adds a separate entry of the source.

Legend:
[1] = system: PBMC; assay: Viability assay of PBMC, flow cytometry with viability dye; assay type: cell-based, Human; conditions: PBMCs
Method: (§1) PBMCs were thawed and let in the culture in RPMI with 10% fetal bovine serum (FBS) (Gibco, Grand Island, NY, USA) for 24 h before each experiment. Cells were stimulated for 48 h with 8 μg/mL of Phytohemagglutinin-PHA (Sigma-Aldrich, St. Louis, MO, USA) and 50 UI/mL of IL-2 (Peprotech, Rocky Hill, CT, USA). In the presence of various concentrations of di-halogenated compounds derived from L-Tyrosine, 2 × 10^5 cells per well were treated and resuspended in 200 µL of fresh medium with 20 UI/mL of IL-2 and incubated in 96-well culture plates for 7 days. After 7 days post-treatment, cell viability was determined using flow cytometry. Briefly, cells were stained with fixable viability dye eFluor 506 (eBioscience, Leicestershire, UK) as detailed in the manufacturer’s protocol for 30 min in the dark. Later, cells were washed and resuspended in PBS, and the percentage of viable cells was measured instead in the LS Fortessa cytometer (BD Biosciences, Franklin Lakes, NJ, USA). Data were analyzed using FlowJo version 10.5.3 (FlowJo, LLC, Ashland, OR, USA).

[2] = system: HIV-GFP-VSV-G reporter virus; assay: microbe, parasite or virus in culture; assay type: cell-based, HIV-1
[3] = system: HIV-1 BaL; assay: Anti-HIV activity in PBMC, intracellular p24 by flow cytometry; assay type: cell-based
Method: In the presence of various concentrations of the most bioactive compounds, 1×10^6 PBMCs previously stimulated with 8 μg/mL of PHA and 50UI/mL of IL-2 were treated for 1 h. […] After spinoculation, cells were washed twice with PBS 1x to remove free virions, and then, fresh medium supplemented with 20 UI/mL of IL-2, with or without the di-halogenated compounds derived from L-Tyrosine dilutions, was added. Cells were plated in 96-well culture plates and incubated for 7 days. […] In addition, antiviral activity was also assessed by measuring intracellular p24 in harvested cells. Briefly, cells were stained with fixable viability dye eFluor 506 (eBioscience, Leicestershire, UK), CD3 (UCHT1; Thermo Scientific, Wilmington, DE, USA), CD4 (RPA-T4; BD Biosciences, San Jose, CA, USA), and p24 PE (KC57; Beckman Coulter, Pasadena, CA, USA), as detailed in the manufacturer’s protocol. Later, cells were washed and resuspended in PBS, and the lecture was measured instead in the LS Fortessa cytometer (BD Biosciences, Franklin Lakes, NJ, USA). Data were analyzed using FlowJo version 10.5.3 (FlowJo, LLC, Ashland, OR, USA).

[4] = system: HIV-1 BaL; assay: Anti-HIV activity in PBMC, p24 ELISA of supernatant; assay type: cell-based; conditions: Human immunodeficiency virus 1, BAL, PBMC, AZT (10 µM); read-out: inhibition of HIV-1 BaL in PBMC, extracellular p24 ELISA
[5] = system: HIV-1 BaL (R5); assay: Anti-HIV activity in infected TZM-bl cells (luciferase), pre- and post-infection treatment; assay type: cell-based, Human Immunodeficiency Virus Type 1 (HIV-1)
Method: (§2) TZM-bl cells were plated in a flat-bottom 96-well plate (Corning Inc., Corning, New York, NY, USA) at the concentration of 1.2 × 10^5 cells/well and incubated for 24 h at 37 °C before the addition or not of each compound at non-cytotoxic concentrations (pre-infection treatment). Then, 1 h later the treatment was removed, and the infection was performed by adding 10 ng/mL of HIV-1IIIB p24 (X4) or 2 ng/mL of HIV-1 BaL (R5). After 3 h, the virus was removed and washed, and the compound dilutions were added again (post-infection treatment). Additionally, three wells were left for the negative control (cells without treatment or infection), the positive control of infection (cells infected with the virus without treatment), and the positive control of inhibition (AZT). Antiviral activity was quantified 48 h after treatment by measuring luciferase activity, which is directly proportional to the number of infectious virus particles in the sample [23]. The luciferase activity was quantified via luminescence emitted by the cells using Bright-GloTM Luciferase Assay System (Promega Corp., Madison, WI, USA), following the manufacturer’s instructions. Briefly, 100 μL of the reagent was added to 100 μL of TZM-bl cells and incubated for at least 2 min, protected from light. Relative light units (RLUs) were measured using the multi-mode plate reader (Thermo ScientificTM VarioskanTM LUX). Each experimental condition was performed in triplicate in two independent experiments (n = 6). The percentage inhibition was calculated as follows: 100 − (RLU of treated cells − RLU of uninfected cells/RLU of infection control − RLU of uninfected cells) × 100.

[6] = system: HIV-1IIIB (X4); assay: as above; assay type: cell-based, Human Immunodeficiency Virus Type 1 (HIV-1); conditions: for SI: selectivity index against HIV-1IIIB (CC50 and IC50 of Table 4)
Method: as §2

[7] = system: TZM-bl cells; assay: MTT cytotoxicity assay; assay type: cell-based
Method: (§3) The in vitro cytotoxic effect of the di-halogenated compounds on TZM-bl cells was determined with the MTT (3-(4,5-Dimethylthiazol-2-yl)-2,5-diphenyltetrazolium bromide) assay (Sigma-Aldrich, St. Louis, MO, USA). For this purpose, 1.2 × 10^5 cells/well were seeded in 96-well plates, which were incubated at 37 °C and 5% CO2 for 24 h. DMEM was used as a negative control and serial two-fold dilutions of the compounds were performed at 9.37 to 300 μM in DMEM supplemented with 5% FBS. A total of 100 μL/well of each dilution was added and incubated for 48 h. Subsequently, the cells were washed 2 times with 1X PBS, and 30 μL of MTT solution (2 mg/mL) was added and incubated for 2 h at 37 °C, in a light-protected culture. Then, 100 µL of DMSO was added to dissolve the formazan crystals, placed in shaking for 15 min, and absorbance reading was performed at 570 nm, using the Microplate Spectrophotometer (Thermo Scientific™ Multiskan™ GO, Waltham, MA, USA). Two independent experiments evaluated each experimental condition in quadruplicate (n = 8). The percentage of viability was calculated concerning the absorbance of the controls without a compound (100% viability). The 50% cytotoxic concentration was defined as the concentration of each compound that can reduce cell viability to 50% of the untreated cell control. CC50 was calculated and analyzed with GraphPad Prism version 8.0.1 (GraphPad Software, Inc., San Diego, CA, USA).

[8] = Viability assay of PBMC, flow cytometry with viability dye; assay type: cell-based, Human; conditions: human, PBMC stimulated with PHA and IL-2; all concentrations tested (18.75 μM up to 150 μM), 7 days; read-out: viability level on PBMCs
Method: as §1

[9] = MTT cytotoxicity assay; assay type: cell-based; conditions: human; TZM-bl cells, MTT, 48 h
Method: as §3

[10] = Human immunodeficiency virus 1, TZM-bl, read-out: percentage inhibition of HIV-GFP-VSV-G replication
[11] = Human immunodeficiency virus 1, BAL, TZM-bl cells, read-out: Percentage inhibition of HIV-1 BaL replication
[12] = Human immunodeficiency virus 1, TZM-bl, TZM-bl cells, read-out: Percentage inhibition of HIV-1IIIB (X4 strain) replication

Cc1cn([C@H]2C[C@H](N=[N+]=[N-])[C@@H](CO)O2)c(=O)[nH]c1=O [AZT, Zidovudine, reference compound]
toxicity in words [1]: Neither the viral inhibition control (AZT) nor the solvent (DMSO) proved toxic | inhibition at 10 µM [2, 10]: 93.2% | inhibition at 10 µM ([3]; Human immunodeficiency virus 1, BAL, PBMC, AZT (10 µM), positive control, read-out: inhibition of HIV-1 BaL replication in PBMC, flow cytometry (intracellular p24)): 99.4% | inhibition at 10 µM [4]: > 90% | inhibition at 10 µM ([5]; Human immunodeficiency virus 1, BAL, TZM-bl, read-out: inhibition of viral infection (HIV-1 BaL)): > 90% | inhibition at 10 µM ([6]; Human immunodeficiency virus 1, TZM-bl, read-out: inhibition of virus infections (HIV-1IIIB)): > 90% | toxicity in words [7]: Neither the viral inhibition control (AZT) nor the solvent (DMSO) was toxic

COc1c(Br)cc(C[C@@H](C(=O)O)N(C)C)cc1Br [TODB-2M]
viability at 7 days [8]: > 90% | SI [2]: 1.16 | IC50 ([2]; Human immunodeficiency virus 1, TZM-bl, 48 h): 142 µM | inhibition at 150 µM [2, 10]: 44.2% | inhibition at 75 µM ([3]; Human immunodeficiency virus 1, BAL, PBMC, 168 h, 75 μM, 7 days, read-out: inhibition of HIV-1 BaL replication in PBMC, flow cytometry (intracellular p24)): 56.5% | inhibition at 150 µM ([3]; Human immunodeficiency virus 1, BAL, PBMC, 168 h, 150 µM, 7 days, read-out: inhibition of HIV-1 BaL replication in PBMC, flow cytometry (intracellular p24)): > 60% | inhibition of HIV-1 BaL replication in PBMC, flow cytometry (intracellular p24) ([3]; all concentrations, 7 days): over 50% | IC50 ([5]; Human immunodeficiency virus 1, BAL, TZM-bl, 48 h, HIV-1 BaL (R5), TZM-bl cells, luciferase): 114 µM | inhibition at 18 µM [5, 11]: 36.3% | inhibition at 37 µM [5, 11]: 34.1% | inhibition at 75 µM ([5]; Human immunodeficiency virus 1, BAL, 75 µM, TZM-bl cells, read-out: Percentage inhibition of HIV-1 BaL replication): 37.7% | inhibition at 150 µM ([5]; Human immunodeficiency virus 1, BAL, 150 µM, TZM-bl cells, read-out: Percentage inhibition of HIV-1 BaL replication): 45.8% | SI ([5]; selectivity index against HIV-1 BaL (CC50 and IC50 of Table 3)): 1.45 | inhibition at 18 µM [6, 12]: 22.2% | inhibition at 37 µM [6, 12]: -4% | inhibition at 75 µM [6, 12]: 9.9% | inhibition at 150 µM ([6]; Human immunodeficiency virus 1, TZM-bl, 150 µM, TZM-bl cells, read-out: Percentage inhibition of HIV-1IIIB (X4 strain) replication): 95.9% | IC50 ([6]; Human immunodeficiency virus 1, HIV-1IIIB (X4), TZM-bl cells, luciferase, 48 h): ~82.7 µM | SI [6]: ~1.99 | CC50 at 48 h [9]: 165 µM

C[N+](C)(C)CCc1cc(Br)c(O)c(Br)c1 [YDB-3M]
anti-HIV activity against R5 strain in words ([5]; HIV-1 BaL, TZM-bl cells): had no activity; also recorded: did not show significant anti-HIV activity | inhibition at 18 µM [5, 11]: 7.2% | inhibition at 37 µM [5, 11]: -10.2% | inhibition at 18 µM [6, 12]: 39.2% | inhibition at 37 µM [6, 12]: 1.8% | inhibition at 75 µM [6, 12]: -19.4% | SI [6]: ~32.65 | CC50 at 48 h [9]: ~101 µM | cytotoxicity level ([7]; 150 μM, 48 h): higher level of cytotoxicity
